Laboratory results taken from US9029337B2, “Modulation of factor 7 expression” (Isis Pharmaceuticals, Inc., priority 2007, dated 2015).
Strand notation (5' to 3'): a small letter for the sugar, then the base; units joined by * are phosphorothioate-linked, units joined directly phosphodiester-linked; [ ] holds rarer units or linkages, { } end groups; capitals alone tell only the bases. e = 2'-O-(2-methoxyethyl) (MOE); [5mC] = 5-methylcytosine; d = 2'-deoxy (DNA)

tested on: human Factor 7 mRNA; assay: Antisense inhibition of human Factor 7 mRNA in HepB3 cells, 50 nM antisense oligonucleotide, lipofectin; type: cell-based; conditions: Table 6, 50 nM, lipofectin, approximately 24 hours
Method in brief: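 Cells plated at 4,000 per well were transfected and harvested after approximately 24 hours of treatment. Transcript levels, measured with primer probe set RTS 2927, were normalised to total RNA by RIBOGREEN®. Values are percent inhibition relative to untreated control cells.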

Row | Substance | % Inhibition
1 | 422263 (antisense eG*eG*dA*dA*dG*dA*dA*dG*dG*dG*dA*d[5mC]*dG*dG*dA*eA*eG*eG*eT*eG) [compound 422263] | 19%
2 | 422264 (antisense e[5mC]*eG*dG*dA*dA*dG*dA*dA*dG*dG*dG*dA*d[5mC]*dG*dG*eA*eA*eG*eG*eT) [compound 422264] | 24%
3 | 422265 (antisense eG*e[5mC]*dG*dG*dA*dA*dG*dA*dA*dG*dG*dG*dA*d[5mC]*dG*eG*eA*eA*eG*eG) [compound 422265] | 34%
4 | 422266 (antisense e[5mC]*eG*d[5mC]*dG*dG*dA*dA*dG*dA*dA*dG*dG*dG*dA*d[5mC]*eG*eG*eA*eA*eG) [compound 422266] | 13%
5 | 422267 (antisense eG*e[5mC]*dG*d[5mC]*dG*dG*dA*dA*dG*dA*dA*dG*dG*dG*dA*e[5mC]*eG*eG*eA*eA) [compound 422267] | 38%
6 | 422268 (antisense eA*eG*d[5mC]*dG*d[5mC]*dG*dG*dA*dA*dG*dA*dA*dG*dG*dG*eA*e[5mC]*eG*eG*eA) [compound 422268] | 63%
7 | 422269 (antisense eG*eA*dG*d[5mC]*dG*d[5mC]*dG*dG*dA*dA*dG*dA*dA*dG*dG*eG*eA*e[5mC]*eG*eG) [compound 422269] | 27%
8 | 422270 (antisense eT*eG*dA*dG*d[5mC]*dG*d[5mC]*dG*dG*dA*dA*dG*dA*dA*dG*eG*eG*eA*e[5mC]*eG) [compound 422270] | 15%
9 | 422271 (antisense e[5mC]*eT*dG*dA*dG*d[5mC]*dG*d[5mC]*dG*dG*dA*dA*dG*dA*dA*eG*eG*eG*eA*e[5mC]) [compound 422271] | 32%
10 | 422272 (antisense eA*e[5mC]*dT*dG*dA*dG*d[5mC]*dG*d[5mC]*dG*dG*dA*dA*dG*dA*eA*eG*eG*eG*eA) [compound 422272] | 12%
11 | 422273 (antisense eT*eA*d[5mC]*dT*dG*dA*dG*d[5mC]*dG*d[5mC]*dG*dG*dA*dA*dG*eA*eA*eG*eG*eG) [compound 422273] | 0%
12 | 422274 (antisense eT*eT*dA*d[5mC]*dT*dG*dA*dG*d[5mC]*dG*d[5mC]*dG*dG*dA*dA*eG*eA*eA*eG*eG) [compound 422274] | 24%
13 | 422275 (antisense eG*eT*dT*dA*d[5mC]*dT*dG*dA*dG*d[5mC]*dG*d[5mC]*dG*dG*dA*eA*eG*eA*eA*eG) [compound 422275] | 42%
14 | 422276 (antisense eG*eG*dT*dT*dA*d[5mC]*dT*dG*dA*dG*d[5mC]*dG*d[5mC]*dG*dG*eA*eA*eG*eA*eA) [compound 422276] | 66%

same assay, conditions: gapmers targeted to nucleobases 4868 to 4899 of SEQ ID NO: 1, Table 8

Row | Substance | % Inhibition of human Factor 7 mRNA levels
15 | 422290 (antisense eT*e[5mC]*dT*dG*d[5mC]*dA*dG*dG*dA*dG*d[5mC]*dG*dG*d[5mC]*d[5mC]*eT*eA*eA*eA*eT) [compound 422290] | 50%
16 | 422291 (antisense eT*eT*d[5mC]*dT*dG*d[5mC]*dA*dG*dG*dA*dG*d[5mC]*dG*dG*d[5mC]*e[5mC]*eT*eA*eA*eA) [compound 422291] | 53%
17 | 422293 (antisense eA*eG*dT*dT*d[5mC]*dT*dG*d[5mC]*dA*dG*dG*dA*dG*d[5mC]*dG*eG*e[5mC]*e[5mC]*eT*eA) [compound 422293] | 69%
18 | 422297 (antisense e[5mC]*e[5mC]*d[5mC]*dG*dA*dG*dT*dT*d[5mC]*dT*dG*d[5mC]*dA*dG*dG*eA*eG*e[5mC]*eG*eG) [compound 422297] | 63%
19 | 422298 (antisense eG*e[5mC]*d[5mC]*d[5mC]*dG*dA*dG*dT*dT*d[5mC]*dT*dG*d[5mC]*dA*dG*eG*eA*eG*e[5mC]*eG) [compound 422298] | 62%
20 | 422299 (antisense eA*eG*d[5mC]*d[5mC]*d[5mC]*dG*dA*dG*dT*dT*d[5mC]*dT*dG*d[5mC]*dA*eG*eG*eA*eG*e[5mC]) [compound 422299] | 64%
21 | 422300 (antisense eG*eA*dG*d[5mC]*d[5mC]*d[5mC]*dG*dA*dG*dT*dT*d[5mC]*dT*dG*d[5mC]*eA*eG*eG*eA*eG) [compound 422300] | 65%
22 | 422301 (antisense eG*eG*dA*dG*d[5mC]*d[5mC]*d[5mC]*dG*dA*dG*dT*dT*d[5mC]*dT*dG*e[5mC]*eA*eG*eG*eA) [compound 422301] | 67%
23 | 422302 (antisense eA*eG*dG*dA*dG*d[5mC]*d[5mC]*d[5mC]*dG*dA*dG*dT*dT*d[5mC]*dT*eG*e[5mC]*eA*eG*eG) [compound 422302] | 67%

same assay, conditions: oligonucleotides targeted to nucleobases 13760 to 13789 of SEQ ID NO: 1 (Table 10)

Row | Substance | % Inhibition (human Factor 7 mRNA levels)
24 | 422262 (antisense e[5mC]*eT*dG*d[5mC]*dG*d[5mC]*d[5mC]*dA*d[5mC]*d[5mC]*d[5mC]*dG*d[5mC]*d[5mC]*dG*eG*e[5mC]*eT*e[5mC]*eT) [compound 422262] | 0%

same assay, conditions: oligonucleotides targeted to nucleobases 14707 to 14732 of SEQ ID NO: 1 (Table 11)

Row | Substance | % Inhibition (human Factor 7 mRNA levels)
25 | 422277 (antisense e[5mC]*e[5mC]*dT*dG*dA*dG*dG*d[5mC]*d[5mC]*dA*dG*d[5mC]*dA*dG*dA*eT*e[5mC]*eA*e[5mC]*eG) [compound 422277] | 56%
26 | 422278 (antisense eG*e[5mC]*d[5mC]*dT*dG*dA*dG*dG*d[5mC]*d[5mC]*dA*dG*d[5mC]*dA*dG*eA*eT*e[5mC]*eA*e[5mC]) [compound 422278] | 64%
27 | 422279 (antisense eA*eG*d[5mC]*d[5mC]*dT*dG*dA*dG*dG*d[5mC]*d[5mC]*dA*dG*d[5mC]*dA*eG*eA*eT*e[5mC]*eA) [compound 422279] | 56%
28 | 422280 (antisense e[5mC]*eA*dG*d[5mC]*d[5mC]*dT*dG*dA*dG*dG*d[5mC]*d[5mC]*dA*dG*d[5mC]*eA*eG*eA*eT*e[5mC]) [compound 422280] | 52%
29 | 422281 (antisense eG*e[5mC]*dA*dG*d[5mC]*d[5mC]*dT*dG*dA*dG*dG*d[5mC]*d[5mC]*dA*dG*e[5mC]*eA*eG*eA*eT) [compound 422281] | 57%
30 | 422282 (antisense eA*eG*d[5mC]*dA*dG*d[5mC]*d[5mC]*dT*dG*dA*dG*dG*d[5mC]*d[5mC]*dA*eG*e[5mC]*eA*eG*eA) [compound 422282] | 48%
31 | 422283 (antisense e[5mC]*eA*dG*d[5mC]*dA*dG*d[5mC]*d[5mC]*dT*dG*dA*dG*dG*d[5mC]*d[5mC]*eA*eG*e[5mC]*eA*eG) [compound 422283] | 50%

same assay, conditions: oligonucleotides targeted to nucleobases 15098 to 15122 of SEQ ID NO: 1 (Table 12)

Row | Substance | % Inhibition (human Factor 7 mRNA levels)
32 | 422284 (antisense e[5mC]*eA*d[5mC]*dA*d[5mC]*dA*dT*dG*dG*dA*dG*dT*d[5mC]*dA*dG*e[5mC]*eA*eT*e[5mC]*eG) [compound 422284] | 43%
33 | 422285 (antisense eG*e[5mC]*dA*d[5mC]*dA*d[5mC]*dA*dT*dG*dG*dA*dG*dT*d[5mC]*dA*eG*e[5mC]*eA*eT*e[5mC]) [compound 422285] | 39%
34 | 422286 (antisense eA*eG*d[5mC]*dA*d[5mC]*dA*d[5mC]*dA*dT*dG*dG*dA*dG*dT*d[5mC]*eA*eG*e[5mC]*eA*eT) [compound 422286] | 53%
35 | 422287 (antisense e[5mC]*eA*dG*d[5mC]*dA*d[5mC]*dA*d[5mC]*dA*dT*dG*dG*dA*dG*dT*e[5mC]*eA*eG*e[5mC]*eA) [compound 422287] | 41%
36 | 422288 (antisense eA*e[5mC]*dA*dG*d[5mC]*dA*d[5mC]*dA*d[5mC]*dA*dT*dG*dG*dA*dG*eT*e[5mC]*eA*eG*e[5mC]) [compound 422288] | 44%
37 | 422289 (antisense eG*eA*d[5mC]*dA*dG*d[5mC]*dA*d[5mC]*dA*d[5mC]*dA*dT*dG*dG*dA*eG*eT*e[5mC]*eA*eG) [compound 422289] | 34%
